Twelve molecules from ChEMBL document CHEMBL1150658, “New ent-kaurane diterpenoids with anti-platelet aggregation activity from Annona squamosa” (2002) can be followed below.

Holding throughout (type): functional
Settings in all cases: Oryctolagus cuniculus

The nature of test [1]: Antiplatelet activity against washed rabbit platelet assessed as inhibition of thrombin-induced platelet aggregation at 200 uM.
Test [2] can be described thus: Antiplatelet activity against washed rabbit platelet assessed as inhibition of arachidonic acid-induced platelet aggregation at 200 uM.
Test [3] in a line: Antiplatelet activity against washed rabbit platelet assessed as inhibition of platelet activating factor-induced platelet aggregation at 200 uM.
Test [4] is described as follows: Antiplatelet activity against washed rabbit platelet assessed as inhibition of collagen-induced platelet aggregation at 200 uM.

What is called inhibition is the relative decrease from the control value, in per cent. Consider `C[C@@]12CCC[C@@](C)(C(=O)O)[C@H]1CC[C@]13C[C@@H](CO)[C@H](CC[C@H]12)C3`, for which the inhibition at 200 µM in test [1] turned out to be 2.8%; in test [2] it was 4.1%; in test [3] it was 7.4%; in test [4], 23.8%.
The matching figures for `C[C@@]12CCC[C@@](C)(C(=O)O)[C@H]1CC[C@@]13C[C@@H](CC[C@H]12)[C@](O)(CO)C3`: 6.8%, 14.9%, 14.4% and 8.6%.
The matching figures for `C[C@@]12CCC[C@@](C)(O)[C@H]1CC[C@@]13C[C@@H](CC[C@H]12)[C@@H](C(=O)O)C3`: 2%, 4.5%, 13.3% and 30.5%.
The matching figures for `C[C@@]12CCC[C@@](C)(C(=O)O)[C@H]1CC[C@@]13C[C@@H](CC[C@H]12)[C@H](C(=O)O)C3`: 6%, 15.4%, 15.2% and 56.9%.
As to `C[C@@]12CCC[C@@](C)(C(=O)O)[C@H]1CC[C@@]13C[C@H](CC[C@H]12)[C@@](O)(CO)C3`, the inhibition at 200 µM in test [1] came to 0.4%; in test [2] it was 7.2%; in test [3], 8.9%; in test [4], 2.3%.
The like results for `CC(=O)OC[C@]1(O)C[C@@]23CC[C@H]4[C@@](C)(CCC[C@@]4(C)C(=O)O)[C@@H]2CC[C@H]1C3` were, in that order, 8%, 10.8%, 11.1% and 30.1%.
For `C[C@@]12CCC[C@@](C)(C=O)[C@H]1CC[C@@]13C[C@@H](CC[C@H]12)[C@@](O)(CO)C3`, the inhibition at 200 µM was 3.2% in test [1], 0.5% in test [2], 10.3% in test [3] and 4.9% in test [4].
Consider `C[C@@]12CCC[C@@](C)(C=O)[C@H]1CC[C@@]13C[C@@H](CC[C@H]12)[C@@H](C(=O)O)C3`, for which the inhibition at 200 µM stood at 6.8% in test [1], 100% in test [2], 11.8% in test [3] and 100% in test [4].
For the molecule `C[C@@]12CCC[C@@](C)(C=O)[C@H]1CC[C@@]13C[C@@H](CC[C@H]12)[C@](O)(CO)C3`, the inhibition at 200 µM was found to be 0% in test [1], 9.6% in test [2], 5.5% in test [3] and 17.6% in test [4].
The like results for `C[C@@]12CCC[C@@](C)(O)[C@H]1CC[C@@]13C[C@H](CC[C@H]12)[C@](O)(CO)C3` [ANNOSQUAMOSIN B] were, in that order, 1.6%, 8.7%, 8.5% and 21.1%.
The matching figures for `CC(=O)O[C@@]1(CO)C[C@@]23CC[C@H]4[C@@](C)(CCC[C@@]4(C)O)[C@@H]2CC[C@@H]1C3` [ANNOSQUAMOSIN D]: 2%, 4.9%, 9.3% and 10.6%.
`C=C1C[C@@]23CC[C@H]4[C@@](C)(CCC[C@@]4(C)C(=O)O)[C@@H]2CC[C@@H]1C3` [KAURENOIC ACID]: the inhibition at 200 µM in test [1] turned out to be 5.6%; in test [2] it was 24.8%; in test [3] it was 12.6%; in test [4], 100%.
